In patent US9029386B2, “Pyridine derivatives useful as kinase inhibitors” (YM Biosciences Australia Pty Ltd, priority 2006, dated 2015) one finds IC50 data, which are given here for 25 molecules.

The target in experiment [1] is T1, kinase domain of human CSF1-R (Homo sapiens, UniProt P07333).
T1 construct: from codon I553 to Q961; made in house; host or cells: Sf9 insect cells (baculovirus)
T1 sequence (P07333 553-961): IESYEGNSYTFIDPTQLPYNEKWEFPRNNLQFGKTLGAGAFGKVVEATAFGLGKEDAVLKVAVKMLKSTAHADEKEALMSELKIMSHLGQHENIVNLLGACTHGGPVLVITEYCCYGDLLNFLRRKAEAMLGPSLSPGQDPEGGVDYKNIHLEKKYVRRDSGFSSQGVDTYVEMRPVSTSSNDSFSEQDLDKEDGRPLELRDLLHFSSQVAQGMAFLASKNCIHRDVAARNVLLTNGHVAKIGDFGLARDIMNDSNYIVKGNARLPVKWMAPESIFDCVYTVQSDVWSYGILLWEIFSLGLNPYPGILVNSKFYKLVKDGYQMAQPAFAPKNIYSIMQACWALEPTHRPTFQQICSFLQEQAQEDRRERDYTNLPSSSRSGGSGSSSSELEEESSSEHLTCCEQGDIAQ
As to the kind of experiment: Alphascreen protein tyrosine kinase assay, CSF-1R. In kind it is biochemical. The protocol:
(§1) For screening purposes, compounds were diluted in 96 well plates at a concentration of 20 μM. Plates were warmed at 37° C. for 30 minutes before assay.
The kinase domain of human CSF1-R from codon I553 to Q961 was cloned into the pDEST-20 expression vector (Invitrogen). The CSF1-R plasmid was then transformed into competent DH10Bac cells (Gibco), and the recombinant baculovirus produced prepared for transfection into Sf9 insect cells.
(§2) Baculovirus preparations from each of construct were infected into five liters of SF9 cells (Invitrogen) grown in SF-900 medium (Invitrogen) to a cell density of approximately 1−2×10^6 cells/ml. […] Cells were harvested and lysed. Tyrosine kinase domains were purified by affinity chromatography on a glutathione-agarose column (Scientifix Pty. Ltd. catalog #: GSH-200).
(§3) Kinase assays were performed in 384 well Optiplates (Packard) using an Alphascreen Protein Tyrosine Kinase kit. […] Alphascreen phosphotyrosine acceptor beads followed by streptavidin donor beads were added under subdued light. The Alphascreen plates were read on a Packard Fusion Alpha. Inhibitors were added to the assays thirty minutes prior to the addition of ATP. Inhibitors were added in aqueous DMSO, with DMSO concentrations never exceeding 1%.
(In Alpha technology, singlet oxygen from a donor bead excites a nearby acceptor bead.)

Experiment [2] deals with T2, kinase domain of human c-kit (Homo sapiens, UniProt P10721).
T2 construct: from codon M552 to end; made in house; host or cells: Sf9 insect cells (baculovirus)
T2 sequence (P10721 552-976 limits assumed): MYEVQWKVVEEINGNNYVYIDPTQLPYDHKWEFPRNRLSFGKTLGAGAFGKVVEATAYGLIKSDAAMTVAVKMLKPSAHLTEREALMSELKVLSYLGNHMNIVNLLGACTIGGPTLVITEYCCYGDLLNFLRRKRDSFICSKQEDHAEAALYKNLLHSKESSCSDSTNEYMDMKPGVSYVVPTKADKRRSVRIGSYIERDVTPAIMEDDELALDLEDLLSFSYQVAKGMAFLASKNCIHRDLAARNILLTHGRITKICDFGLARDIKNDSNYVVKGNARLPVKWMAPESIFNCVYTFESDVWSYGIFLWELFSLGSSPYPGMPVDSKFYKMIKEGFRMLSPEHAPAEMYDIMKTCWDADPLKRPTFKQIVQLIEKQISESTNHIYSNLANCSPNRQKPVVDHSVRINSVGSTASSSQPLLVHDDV
Nature of the experiment: Alphascreen protein tyrosine kinase assay, c-KIT. In kind it is biochemical. How it is done: as §1
The kinase domain of human c-kit from codon M552 to end was cloned into the pDEST-20 expression vector (Invitrogen). The c-kit plasmid was then transformed into competent DH10Bac cells (Gibco), and the recombinant baculovirus produced prepared for transfection into Sf9 insect cells.
as §2, §3

Experiment [3] has as its target T3, KDR protein kinase (Homo sapiens, UniProt P35968).
T3 construct: purchased Millipore 14-630M
As to the kind of experiment: Alphascreen protein tyrosine kinase assay, KDR. Format: biochemical. The protocol:
as §1
FLT-3 and PDGFR β tyrosine kinase enzymes were purchased from Upstate Cell Signalling Solutions, CA, USA (flt-3 catalog #: 14-500 and PDGFR β catalog #: 14-463). KDR protein kinase enzyme was purchased from Millipore (catalogue #14-630M).
Kinase assays were performed in 384 well Optiplates (Packard) using an Alphascreen Protein Tyrosine Kinase kit. […] The biotinylated peptides Biotin-[…]-NH2 for c-KIT and PDGFRβ and Biotin-[…]-NH2 for CSF1-R and FLT-3 (final concentration 0.1-3 μM) were used as substrates. Alphascreen phosphotyrosine acceptor beads followed by streptavidin donor beads were added under subdued light. The Alphascreen plates were read on a Packard Fusion Alpha. Inhibitors were added to the assays thirty minutes prior to the addition of ATP. Inhibitors were added in aqueous DMSO, with DMSO concentrations never exceeding 1%.

Experiment [4] relates to mNFS-60. As to the kind of experiment: Cellular assay (Alamar Blue), mNFS-60 with human M-CSF. In kind it is cell-based. Conditions: human M-CSF at 20 ng/ml, 72 hr. How it is done:
(§4) Cells for the assays were prepared by harvesting cells from culture, and then diluting them in the appropriate growth medium to between 40,000 cell/mL and 600,000 cell/mL, depending on the cell line.
(§5) The compounds to be tested were added (104, 10× final concentration) to a flat bottomed 96-well plate. The cellular suspension (80 μL per well) was added, and one hour later the growth factor was added (human M-CSF at 20 ng/ml for mNFS-60, mouse IL-3 at 5 ng/ml for Baf3-WT). The plate was then incubated for 72 hr at 37° C., 5% CO2. Alamar Blue (10^4 per well) was added and the plates returned to the incubator for a further 4-8 hours.
(§6) The plates were then read using a fluorescence plate reader at excitation 544 nm and emission 590 nm.
In general terms: Alamar Blue is a resazurin reagent that responds to reducing activity.

The test system of experiment [5] is Baf3-WT. As to the kind of experiment: Cellular assay (Alamar Blue), Baf3-WT with mouse IL-3. Conditions: mouse IL-3 at 5 ng/ml, 72 hr. Format: cell-based. How it is done:
as §4, §5, §6

Experiment [6] has as its target T4, PDGFR β tyrosine kinase (Homo sapiens, UniProt P09619).
T4 construct: purchased Upstate Cell Signalling Solutions, CA, USA 14-463
As to the kind of experiment: Alphascreen protein tyrosine kinase assay, PDGFRβ. In kind it is biochemical.

Some results are limits rather than exact numbers.

T4 sequence (P09619 33-1106): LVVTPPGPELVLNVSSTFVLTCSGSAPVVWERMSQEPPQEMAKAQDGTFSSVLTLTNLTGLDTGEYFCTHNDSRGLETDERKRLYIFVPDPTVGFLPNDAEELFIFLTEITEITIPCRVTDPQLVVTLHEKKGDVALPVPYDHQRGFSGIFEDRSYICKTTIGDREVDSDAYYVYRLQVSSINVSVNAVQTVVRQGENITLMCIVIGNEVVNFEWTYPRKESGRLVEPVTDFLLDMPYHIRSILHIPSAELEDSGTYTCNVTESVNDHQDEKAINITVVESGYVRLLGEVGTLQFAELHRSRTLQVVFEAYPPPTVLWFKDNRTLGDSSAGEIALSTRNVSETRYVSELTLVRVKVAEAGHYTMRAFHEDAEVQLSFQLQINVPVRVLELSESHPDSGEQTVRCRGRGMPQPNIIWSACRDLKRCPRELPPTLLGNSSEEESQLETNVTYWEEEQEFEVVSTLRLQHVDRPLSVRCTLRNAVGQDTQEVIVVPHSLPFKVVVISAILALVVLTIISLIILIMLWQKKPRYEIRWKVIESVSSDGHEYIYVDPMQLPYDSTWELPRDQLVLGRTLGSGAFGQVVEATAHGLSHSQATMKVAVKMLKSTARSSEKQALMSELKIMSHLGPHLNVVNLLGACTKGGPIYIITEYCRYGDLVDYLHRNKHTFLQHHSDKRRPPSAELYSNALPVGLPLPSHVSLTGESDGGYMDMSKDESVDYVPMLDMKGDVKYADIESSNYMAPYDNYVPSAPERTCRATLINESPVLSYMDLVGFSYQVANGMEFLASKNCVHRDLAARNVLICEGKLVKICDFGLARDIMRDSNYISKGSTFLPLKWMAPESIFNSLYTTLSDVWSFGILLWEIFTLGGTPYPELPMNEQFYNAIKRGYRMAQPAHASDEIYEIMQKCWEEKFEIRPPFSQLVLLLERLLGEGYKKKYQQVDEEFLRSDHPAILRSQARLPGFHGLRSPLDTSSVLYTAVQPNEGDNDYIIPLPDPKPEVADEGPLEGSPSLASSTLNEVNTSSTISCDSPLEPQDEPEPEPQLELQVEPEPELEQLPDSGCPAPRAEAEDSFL
T3 sequence (P35968 20-1356): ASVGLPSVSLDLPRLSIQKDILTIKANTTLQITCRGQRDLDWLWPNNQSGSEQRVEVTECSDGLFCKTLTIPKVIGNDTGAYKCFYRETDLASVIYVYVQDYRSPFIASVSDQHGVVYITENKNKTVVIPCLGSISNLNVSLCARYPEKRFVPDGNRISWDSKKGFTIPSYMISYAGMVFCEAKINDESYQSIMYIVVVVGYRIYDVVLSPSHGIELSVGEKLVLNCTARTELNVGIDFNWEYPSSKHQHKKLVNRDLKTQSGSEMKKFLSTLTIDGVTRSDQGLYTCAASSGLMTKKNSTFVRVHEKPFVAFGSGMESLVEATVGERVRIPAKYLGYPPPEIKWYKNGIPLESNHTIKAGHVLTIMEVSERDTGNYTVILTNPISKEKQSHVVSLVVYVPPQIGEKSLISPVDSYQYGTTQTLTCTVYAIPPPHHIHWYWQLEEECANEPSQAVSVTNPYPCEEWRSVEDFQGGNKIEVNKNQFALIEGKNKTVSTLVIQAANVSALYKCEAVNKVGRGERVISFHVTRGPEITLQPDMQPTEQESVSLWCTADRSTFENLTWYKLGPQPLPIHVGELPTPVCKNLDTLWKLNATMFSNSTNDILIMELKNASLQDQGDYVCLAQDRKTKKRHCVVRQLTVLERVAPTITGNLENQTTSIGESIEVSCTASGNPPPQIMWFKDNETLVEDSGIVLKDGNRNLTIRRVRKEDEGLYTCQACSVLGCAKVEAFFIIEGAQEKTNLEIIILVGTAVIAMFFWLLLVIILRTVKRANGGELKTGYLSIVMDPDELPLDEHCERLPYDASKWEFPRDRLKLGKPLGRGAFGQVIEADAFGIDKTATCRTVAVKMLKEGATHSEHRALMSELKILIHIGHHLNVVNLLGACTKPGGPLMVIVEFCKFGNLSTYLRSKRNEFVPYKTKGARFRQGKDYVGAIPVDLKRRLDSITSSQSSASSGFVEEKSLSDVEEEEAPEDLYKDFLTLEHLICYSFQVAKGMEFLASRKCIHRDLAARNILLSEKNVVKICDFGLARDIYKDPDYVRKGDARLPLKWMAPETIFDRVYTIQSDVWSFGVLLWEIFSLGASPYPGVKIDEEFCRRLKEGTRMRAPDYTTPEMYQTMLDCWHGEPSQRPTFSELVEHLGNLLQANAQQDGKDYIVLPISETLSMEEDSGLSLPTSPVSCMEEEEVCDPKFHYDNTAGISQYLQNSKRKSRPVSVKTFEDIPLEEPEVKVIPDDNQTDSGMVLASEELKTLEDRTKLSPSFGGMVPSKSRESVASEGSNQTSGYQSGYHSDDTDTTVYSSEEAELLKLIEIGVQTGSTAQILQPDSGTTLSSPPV

`C[C@H](Nc1cncc(-c2ccc(N3CCOCC3)nc2)n1)c1cccc(NC(=O)c2cccc(C(F)(F)F)c2)c1` [Compound 187]: the IC50 (commonly the point on the concentration scale where inhibition reaches its midpoint) is less than 100 nM in experiment [1]; less than 1000 nM in experiment [2]; less than 100 nM in experiment [3]; less than 200 nM in experiment [4]; greater than 10000 nM in experiment [5].
As to `C[C@H](Nc1cncc(-c2ccc(CN3CCN(C)CC3)cc2)n1)c1cccc(NC(=O)c2cccc(C(F)(F)F)c2)c1` [Compound 191], the IC50 in experiment [1] is less than 100 nM; in experiment [2], less than 100 nM; in experiment [3], less than 100 nM; in experiment [4] it was less than 200 nM; in experiment [5], less than 10000 nM.
As to `COc1cc(-c2cncc(N[C@@H](C)c3cccc(NC(=O)c4cccnc4)c3)n2)ccc1O` [Compound 3], the IC50 in experiment [2] and in experiment [6] was less than 100 nM each time.
As to `C[C@H](Nc1cncc(-c2ccc(S(C)(=O)=O)cc2)n1)c1cccc(NC(=O)c2cccc(C(F)(F)F)c2)c1` [Compound 182], the IC50 in experiment [1] is less than 100 nM; in experiment [2] it was less than 1000 nM; in experiment [3] it was less than 100 nM; in experiment [4], less than 200 nM; in experiment [5], greater than 10000 nM.
In the case of `C[C@H](Nc1cncc(-c2cccc(CO)c2)n1)c1cccc(NC(=O)c2cccc(C(F)(F)F)c2)c1` [Compound 185], the concentration for half-maximal inhibition (IC50) is less than 100 nM in experiment [1]; less than 1000 nM in experiment [2]; less than 100 nM in experiment [3]; less than 200 nM in experiment [4]; less than 10000 nM in experiment [5].
In the case of `COc1ccc(-c2cncc(N[C@@H](C)c3cccc(NC(=O)c4cccnc4)c3)n2)c(OC)n1` [Compound 20], the IC50 is less than 100 nM in experiment [1], less than 100 nM in experiment [2] and less than 1000 nM in experiment [6].
On to `COc1cc(-c2cncc(N[C@@H](C)c3cccc(NC(=O)c4cncc(C)c4)c3)n2)ccc1OP(=O)(O)O` [Compound 35], for which the 50% inhibitory concentration (IC50) was less than 100 nM in experiment [1], less than 1000 nM in experiment [2] and less than 1000 nM in experiment [6].
As to `C[C@H](Nc1cncc(-c2cccnc2)n1)c1cccc(NC(=O)c2cccnc2)c1` [Compound 11], the IC50 in experiment [1], in experiment [2] and in experiment [6] was less than 1000 nM in each case.
For `Cc1cn(-c2cncc(N[C@@H](C)c3cccc(NC(=O)c4cccc(C(F)(F)F)c4)c3)n2)cn1` [Compound 179], the IC50 in experiment [1] was less than 100 nM; in experiment [2], less than 100 nM; in experiment [3], less than 100 nM; in experiment [4], less than 200 nM; in experiment [5], less than 10000 nM.
Consider `C[C@H](Nc1cncc(-c2cccc(NS(C)(=O)=O)c2)n1)c1cccc(NC(=O)c2cccnc2)c1` [Compound 16], for which the figures for the 50% inhibitory concentration (IC50) in experiment [1], in experiment [2] and in experiment [6] were less than 100 nM, less than 100 nM and less than 1000 nM, respectively.
In the case of `COc1cccc(-c2cncc(N[C@@H](C)c3cccc(NC(=O)c4cccnc4)c3)n2)c1` [Compound 13], the concentration for half-maximal inhibition (IC50) in experiment [1], in experiment [2] and in experiment [6] was less than 100 nM throughout.
Consider `C[C@H](Nc1cncc(-c2ccc(CO)cc2)n1)c1cccc(NC(=O)c2cccc(C(F)(F)F)c2)c1` [Compound 174, (S)—N-(3-(1-(6-(4-(hydroxymethyl)phenyl)pyrazin-2-ylamino)ethyl)phenyl)-3-(trifluoromethyl)benzamide], for which the IC50 was less than 100 nM in experiment [1]; less than 100 nM in experiment [2]; less than 100 nM in experiment [3]; less than 200 nM in experiment [4]; greater than 10000 nM in experiment [5].
As for `COc1cccc(C(=O)Nc2cccc([C@H](C)Nc3cncc(-c4cccc(N5CCOCC5)c4)n3)c2)c1` [Compound 190], the IC50 in experiment [1] was less than 100 nM; in experiment [2], less than 100 nM; in experiment [3], less than 100 nM; in experiment [4], less than 200 nM; in experiment [5], greater than 10000 nM.
`C[C@H](Nc1cncc(-c2cccc(S(C)(=O)=O)c2)n1)c1cccc(NC(=O)c2cccc(C(F)(F)F)c2)c1` [Compound 181]: the half-maximal inhibitory concentration (IC50) is less than 100 nM in experiment [1]; less than 100 nM in experiment [2]; less than 100 nM in experiment [3]; less than 200 nM in experiment [4]; less than 10000 nM in experiment [5].
On to `C[C@H](Nc1cncc(-c2cccc(N3CCOCC3)c2)n1)c1cccc(NC(=O)c2ccc(F)c(Cl)c2)c1` [Compound 189], for which the 50% inhibitory concentration (IC50) is less than 100 nM in experiment [1]; less than 1000 nM in experiment [2]; less than 100 nM in experiment [3]; less than 200 nM in experiment [4]; greater than 10000 nM in experiment [5].
With `C[C@H](Nc1cncc(-c2cccc(S(N)(=O)=O)c2)n1)c1cccc(NC(=O)c2cccc(C(F)(F)F)c2)c1` [Compound 178], the IC50 was less than 100 nM in experiment [1]; less than 1000 nM in experiment [2]; less than 100 nM in experiment [3]; less than 200 nM in experiment [4]; less than 10000 nM in experiment [5].
Regarding `Cc1ccc(NC(=O)c2cccc(C(F)(F)F)c2)cc1[C@H](C)Nc1cncc(Cl)n1` [Compound 169], the half-inhibitory concentration (IC50) in experiment [1] was less than 1000 nM; in experiment [2], less than 1000 nM; in experiment [3] it was less than 100 nM; in experiment [4], less than 200 nM; in experiment [5], less than 10000 nM.
Regarding `CC(Nc1cncc(-c2ccc(N)cc2)n1)c1cccc(NC(=O)c2cccnc2)c1` (racemic) [Compound 22], the half-maximal inhibitory concentration (IC50) in experiment [1] is less than 100 nM; in experiment [2] it was less than 100 nM; in experiment [6], less than 1000 nM.
`C[C@H](Nc1cncc(Cl)n1)c1cccc(NC(=O)c2cccc(CN3CCN(C)CC3)c2)c1` [Compound 127]: the half-maximal inhibitory concentration (IC50) in experiment [4] is less than 1000 nM; in experiment [5], greater than 10000 nM.
As to `Cc1ccc(F)c(C(=O)Nc2cccc([C@H](C)Nc3cncc(-c4cccc(N5CCOCC5)c4)n3)c2)c1` [Compound 192], the IC50 in experiment [1] is less than 100 nM; in experiment [2] it was less than 100 nM; in experiment [3] it was less than 100 nM; in experiment [4], less than 200 nM; in experiment [5], greater than 10000 nM.
For `Cc1cncn1-c1cncc(N[C@@H](C)c2cccc(NC(=O)c3cccc(C(F)(F)F)c3)c2)n1` [Compound 188], the IC50 in experiment [1] was less than 100 nM; in experiment [2], less than 100 nM; in experiment [3], less than 100 nM; in experiment [4], less than 200 nM; in experiment [5], greater than 10000 nM.
With `C[C@H](Nc1cncc(-c2cn[nH]c2)n1)c1cccc(NC(=O)c2cccnc2)c1` [Compound 19], the values for the IC50 in experiment [1], in experiment [2] and in experiment [6] were less than 100 nM, less than 100 nM and less than 1000 nM, respectively.
In the case of `C[C@H](Nc1cncc(-c2ccc(NS(C)(=O)=O)cc2)n1)c1cccc(NC(=O)c2cccc(C(F)(F)F)c2)c1` [Compound 183], the IC50 is less than 100 nM in experiment [1]; less than 1000 nM in experiment [2]; less than 100 nM in experiment [3]; less than 200 nM in experiment [4]; less than 10000 nM in experiment [5].
On to `COc1cccc(-c2cncc(N[C@@H](C)c3cccc(NC(=O)c4ccc(C)nc4)c3)n2)c1` [Compound 36], for which the 50% inhibitory concentration (IC50) is less than 100 nM in experiment [1], less than 100 nM in experiment [2] and less than 1000 nM in experiment [6].
As for `C[C@H](Nc1cncc(-c2ccc(S(N)(=O)=O)cc2)n1)c1cccc(NC(=O)c2cccc(C(F)(F)F)c2)c1` [Compound 173], the values for the IC50 in experiment [1], in experiment [4] and in experiment [5] were less than 100 nM, less than 1000 nM and greater than 10000 nM, respectively.
